{"source": "patent US6087327A", "about": "(priority 1998, dated 2000)", "origin": "cited, not measured here", "test_system": "neurotransmitter release process", "data": [{"smiles": "Nc1ccncc1", "note": "[aminopyridine]", "values": [{"measurement": "reversal of inhibition produced by botulinum neurotoxin A", "value": "more effective"}]}]}
